In test [1] the test system is HT-1080 (fibrosarcoma) cells. The test is described as follows: Primary screening by ferroptosis assay (Erastin-induced, cell viability, CellTiter-Glo). The test is classed as cell-based. Conditions: Homo sapiens, HT-1080 cells, 30 hours, % remaining activity, read-out: EC50, Inhibition for Ferroptosis in HT-1080 Cell. The gist of the method:
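HT-1080 cells seeded overnight, then treated in triplicate with 12-point 2-fold compound dilutions prepared in medium containing 400 μM Erastin (stock before transfer). Viability read by CellTiter-Glo luminescence after 30 h. % remaining activity normalised to vehicle and Erastin-only background; EC50 from non-linear regression.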
On the technique in general: ATP-based viability assays read luminescence as a measure of living cells.

Test [2] deals with 3T3-L1 cells. The test is described as follows: Apoptosis assay (Caspase-Glo 3/7, Actinomycin D induced). The test is classed as cell-based. Conditions: Mus musculus, 3T3-L1; 100 nM Actinomycin D, 48 hours, Caspase-Glo 3/7, 2 hours pre-treatment; read-out: EC50, Inhibition for Apoptosis in 3T3-L1 Cell induced by Actinomycin D. The protocol:
Cell Lines and Media. 3T3-L1 cells were obtained from American Type Culture Collection. Cells were grown in DMEM completed media, 10% FBS, and penicillin-streptomycin mix (Invitrogen). Cells were maintained at 37° C. and 5% CO2 in a tissue culture incubator.
Apoptosis Assay. […] We used this assay to screen our compounds for apoptosis inhibition. Briefly, 40 μL of 3000 3T3-L1 cells were seeded per well in 384 well plates, cells were allowed to adhere overnight. In the next day, prepare the Actinomycin D as the apoptosis inducing agent into 100 μM DMSO stock. Prepare the test compounds into 10 mM DMSO stock. Serial dilute the compound into 10 points by 3-fold dilution with DMSO. Pre-treat the 3T3-L1 cells with test compound by transfer 40 nL of stock of serial concentration in triplicate wells using acoustic fluid transfer, incubate for 2 hours. Then transfer 40 nL of 100 μM of Actinomycin D (final concentration is 100 nM) into designated wells using acoustic fluid transfer. Incubate the assay plates at 37° C., 5% CO2, 95% humidity incubator for 48 hours. For caspase assay, add 20 μL/well of Caspase-Glo>3/7 reagent (Promega) into test wells. Incubate for 30 minutes at room temperature to stabilize the luminescence signal. Read the plate with EnSpire Multimode Plate Reader (PerkinElmer). Calculate the EC50 value using formula equation 201: y−(A+((B−A)/(1+((x/C)^D)))) from the XLFit (Excel add-in software), where
A: Average mean of vehicle samples
B: Average mean of cells treated with 100 nM AcD
Z′ factor was used to describe the screening assay perfonuance. The Z′ factor value was >0.5 in all the test plates which indicated the assay was qualified and the IC50 value was reliable for all tested compounds.

Here are results for 1 molecule from patent publication US10889572B2, “Reactive oxygen species scavengers and use for treating diseases” (XW LABORATORIES INC., priority 2017, dated 2021).

pEC50: −log10 of the molar value.

In general, pEC50 refers to the negative decadic logarithm of the EC50, by convention in mol/L.

Take `CC(C)C[C@@H](/C=C/[C@H](Cc1ccccc1)C(=O)N1CCC[C@@H]1C(=O)N[C@H](C(=O)N[C@@H](CCCNC(=O)OCc1ccccc1)C(=O)NC1CC(C)(C)N(O)C(C)(C)C1)C(C)C)NC(=O)OC(C)(C)C` [Example VII, Benzyl N-[(4S)-4-[(2S)—2-{[(2R)-1-[(2S,3E,5S)-2-benzyl-5-{[(tert-butoxy)carbonyl]amino}-7-methyloct-3-enoyl]pyrrolidin-2-yl]formamido}-3-methylbutanamido]-4-[(1-hydroxy-2,2,6,6-tetramethylpiperidin-4-yl)carbamoyl]butyl]carbamate]: the figures for the pEC50 in test [1] and in test [2] were 6.47 and 5.33, respectively.
